Results reported in US12285401B2, “Pharmaceutical composition comprising trimebutine or pharmaceutically acceptable salt thereof as an active ingredient for prevention or treatment of cancer” (DAEGU-GYEONGBUK MEDICAL INNOVATION FOUNDATION, priority 2019, dated 2025).

Experiments:
[1] = test system: A2780-SP cells (ovarian cancer stem cells); test: Cell viability assay (Cell-titer Glo), A2780-SP sphere cell viability; format: cell-based; conditions: for GI50: A2780-SP ovarian cancer stem cells, 1,500 cells per well, Cell-titer Glo; for viability of A2780-SP cells (ovarian cancer stem cells), result in words: 1500 cells, 7 days, Cell titer Glo
[2] = test system: A2780 cells (ovarian cancer cells); test: Cell viability assay (Cell-titer Glo), A2780 cell viability; format: cell-based; conditions: 3 days
ALDH, OCT4 and SOX2 = test: Western blotting of markers related to cancer stemness in A2780-SP cells; format: cell-based; conditions: 1 μM or 10 μM
Description: A2780-SP cells (ovarian cancer stem cells) were plated in an ultra-low attachment 6-well plate (Corning) at the density of 4×10^5 viable cells per well and cultured in a cancer stem cell medium. On the next day of culture, the medium was replaced with NBM (Neuro Basal Medium), and the cells were cultured for 16 hours in starvation. Then, the cells were treated with the compound of Example 1 at the concentration of 1 μM or 10 μM for 1 hour. The medium was replaced with a cancer stem cell medium containing the compound, and the cells were collected and cultured for an additional 30 minutes before being lysed in RiPA buffer. The extracted protein was separated by SDS-PAGE gel and transferred to a PVDF membrane for Western blotting. […]
Signals were developed on an enhanced chemiluminescence HRP substrate (Bio-Rad) and detected using LAS-3000 mini (Fuji film). The signals were quantified using Image J software (NIH Image).
In order to confirm the anticancer effect through the changes in the expressions of the markers related to sternness and the proteins related to survival and proliferation of cancer stem cells according to the treatment of the pharmaceutical composition containing trimebutine of the present invention, the expression levels of various factors were analyzed by Western blotting. […]

β-catenin = β-catenin S552 phosphorylation and translocation experiments in A2780-SP cells; format: cell-based; conditions: 1 μM or 10 μM, 24 hours
Description: A2780-SP cells (ovarian cancer stem cells) were plated in an ultra-low attachment round bottom 6-well plate (Corning) at the density of 4×10^5 viable cells per well and cultured in a cancer stem cell medium (CM). The cancer stem cell medium is composed of a neurobasal medium supplemented with 20 ng/ml of bFGF, 10 ng/ml of EGF, 2.5 ng/ml of amphotericin B, HEPES, Glutamax and B27. On the next day of culture, the cells were treated with the compound at the concentration of 1 μM or 10 μM for 24 hours. The control group was treated in the same manner as above for 24 hours with a neurobasal medium (NBM) and a cancer stem cell medium (CM) containing DMSO.
To measure the degree of phosphorylation of β-catenin S552, 100 μl of RIPA buffer (containing 1× protease inhibitor and phosphatase inhibitor) was added to the prepared cells, and the cells were disrupted by shaking once every 5 minutes for a total of 15 minutes. The disrupted cells were centrifuged at 13,000 rpm for 15 minutes to collect only the supernatant protein, and the obtained protein was quantified using a BCA protein quantification kit (Pierece, MA, USA), and a total of 15 μg of the protein was used for Western blotting. NE-PER Nuclear and Cytoplasmic Extraction Reagents (Thermoscientific, #78833) were used to separate cytoplasmic and nuclear proteins. […]

Na channel = test: Whole cell patch clamp recording, Na channel current in A2780-SP cells; format: cell-based; conditions: 10 μM, 5 minutes
[3] = A2780-SP xenograft model, change in body weight; format: in vivo; conditions: 3 mg/kg, intraperitoneal, nude mouse
Description: (§1) In order to confirm the inhibitory effect of the pharmaceutical composition of Examples of the present invention in the ovarian cancer stem cell tumor model, each nude mouse was subcutaneously inoculated with 2×10^6 A2780-SP (ovarian cancer stem cell line) cells. After the implantation, the size of tumor formation was measured using a caliper. When the tumor volume became 100 mm^3 or more, the experimental group was divided into the control group (vehicle) and the pharmaceutical composition of Examples of the present invention treated group (3 mg/kg of trimebutine) and the drug was administered to confirm the effect of the drug. The drug was administered […] through intraperitoneal administration, and the size of the tumor and the weight of the mouse were measured at intervals of 3 to 4 days. Then, all mice were euthanized on the day of the end of the experiment, and finally the size of the tumor and the weight were measured.
(§2) In order to confirm the ovarian cancer treatment effect of the pharmaceutical composition containing trimebutine of the present invention in vivo, an animal model experiment was performed. The specific experimental method is the same as the animal experiment method described in Experimental Protocol 5.

L-type Ca channel = test: Whole cell patch clamp recording, Ca channel current in A2780-SP cells; format: cell-based; conditions: 10 μM, 5 minutes
BKCa channel = biological target: T1, BKCa channel (Homo sapiens, UniProt Q12791); test: Whole cell patch clamp recording, BKCa channel current in A2780-SP cells; format: cell-based; conditions: 10 μM, 5 minutes
T1 construct: K^+ current of the BK channel was measured by increasing the membrane voltage by 10 mV starting at −80 mV; endogenous in cells; host or cells: A2780-SP (ovarian cancer stem cells)

A2780-SP xenograft = A2780-SP xenograft model, tumor formation; format: in vivo; conditions: 3 mg/kg, intraperitoneal, nude mouse
Description: as §1, §2

T1 sequence (Q12791 whole entry): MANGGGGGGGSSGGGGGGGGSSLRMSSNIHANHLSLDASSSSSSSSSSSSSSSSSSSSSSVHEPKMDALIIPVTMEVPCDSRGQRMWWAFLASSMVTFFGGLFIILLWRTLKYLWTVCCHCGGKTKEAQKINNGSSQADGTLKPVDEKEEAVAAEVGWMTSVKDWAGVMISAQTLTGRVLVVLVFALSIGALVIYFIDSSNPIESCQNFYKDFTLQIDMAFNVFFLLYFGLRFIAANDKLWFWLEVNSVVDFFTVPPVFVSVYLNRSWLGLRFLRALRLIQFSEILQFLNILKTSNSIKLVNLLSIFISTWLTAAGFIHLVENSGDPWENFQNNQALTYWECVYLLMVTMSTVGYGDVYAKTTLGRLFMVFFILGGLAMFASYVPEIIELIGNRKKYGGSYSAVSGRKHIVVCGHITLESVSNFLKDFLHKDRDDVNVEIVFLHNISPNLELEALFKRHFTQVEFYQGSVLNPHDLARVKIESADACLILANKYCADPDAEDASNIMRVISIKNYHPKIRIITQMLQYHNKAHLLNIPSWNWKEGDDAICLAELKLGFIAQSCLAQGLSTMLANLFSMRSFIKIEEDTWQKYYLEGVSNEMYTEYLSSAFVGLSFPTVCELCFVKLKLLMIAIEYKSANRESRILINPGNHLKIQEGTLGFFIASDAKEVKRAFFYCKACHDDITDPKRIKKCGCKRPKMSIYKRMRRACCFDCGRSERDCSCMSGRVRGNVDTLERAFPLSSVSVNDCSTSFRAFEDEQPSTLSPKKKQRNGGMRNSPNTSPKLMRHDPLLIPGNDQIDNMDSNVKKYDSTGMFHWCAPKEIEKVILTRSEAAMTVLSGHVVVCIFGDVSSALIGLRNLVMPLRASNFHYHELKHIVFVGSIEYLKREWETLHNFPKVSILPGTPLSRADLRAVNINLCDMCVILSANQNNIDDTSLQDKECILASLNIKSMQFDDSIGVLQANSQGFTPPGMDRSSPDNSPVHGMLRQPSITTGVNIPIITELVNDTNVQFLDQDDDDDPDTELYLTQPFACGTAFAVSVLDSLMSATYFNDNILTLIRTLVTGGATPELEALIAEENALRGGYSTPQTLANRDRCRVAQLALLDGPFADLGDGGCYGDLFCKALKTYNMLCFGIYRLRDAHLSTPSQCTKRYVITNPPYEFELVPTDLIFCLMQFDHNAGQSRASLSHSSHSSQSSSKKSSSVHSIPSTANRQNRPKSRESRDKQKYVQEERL

COC(=O)C1=C(C)NC(C)=C(C(=O)O[C@@H]2CCCN(Cc3ccccc3)C2)[C@@H]1c1cccc([N+](=O)[O-])c1 (racemic) [Comparative Example 1 (benidipine), Benidipine]
GI50 [1]: 2640 nM

CCOC(=O)C1=C(C)NC(C)=C(C(=O)OCC)C1c1ccccc1/C=C/C(=O)OC(C)(C)C [Comparative Example 1 (lacidipine), Lacidipine]
GI50 [1]: 2900 nM

COc1ccc(CN2CCN(C(c3ccc(F)cc3)c3ccc(F)cc3)CC2)c(OC)c1OC [Comparative Example 1 (lomerizine), Lomerizine]
GI50 [1]: 2950 nM

COC(=O)C1=C(C)NC(C)=C(C(=O)OCCN2CCN(C(c3ccccc3)c3ccccc3)CC2)C1c1cccc([N+](=O)[O-])c1 (centres unmarked) [Comparative Example 1 (manidipine), Manidipine]
GI50 [1]: 2700 nM
GI50 [2]: ~9670 nM

CCC(COC(=O)c1cc(OC)c(OC)c(OC)c1)(c1ccccc1)N(C)C (centres unmarked) [Example 1, Trimebutine]
expressions of ALDH, OCT4 and SOX2, the markers related to cancer stemness (ALDH, OCT4 and SOX2): reduced
degree of β-catenin S552 phosphorylation (β-catenin): reduced
translocation of β-catenin into the nucleus (β-catenin): reduced
amplitude of Na current (Na channel): remarkably suppressed
change in body weight [3]: no change in body weight
amplitude of Ca current (L-type Ca channel): remarkably suppressed
viability of A2780-SP cells (ovarian cancer stem cells), result in words [1]: reduced the viability
viability of A2780-SP cells (ovarian cancer stem cells), result in words ([1]; listed as trimebutine): excellent effect of inhibiting the survival of ovarian cancer stem cells
GI50 [1]: 401 nM
selectivity for cancer stem cells rather than cancer cells ([1]; A2780-SP versus A2780, FIGS. 1F and 1G compared with FIGS. 1A to 1E): excellent selectivity
amplitude of BKCa current (BKCa channel): remarkably suppressed
tumor formation (A2780-SP xenograft): specifically inhibited tumor formation
